Test [1] has as its target exon 20 T790M mutant-type EGFR enzyme (Homo sapiens, UniProt P00533, T790M). In words: Enzymologic experiment of T790M mutant-type EGFR (TR-FRET). In kind it is biochemical. The conditions noted are these: for IC50: T790M EGFR enzyme, TR-FRET, ATP 1 to 10 uM; for Selectivity of wild-type/mutant-type: ratio WT IC50 / T790M IC50, enzyme. How it is done: (§1) 2) 1 to 5 μL of diluted solution in gradient of the compound was added.
(§2) 3) The mixture was incubated for 10 minutes at room temperature.
(§3) 6) 5 μL of EDTA stop solution was added to terminate the reaction for 5 minutes.
7) […] of a test solution containing the labeled antibody was added, and the mixture was incubated at room temperature for 1 hour.
9) The inhibition rates were calculated according to the fluorescence signal values.
(§4) 10) The IC50 of the compound was obtained by curve fitting according to the inhibition rates at different concentrations.
Background: In TR-FRET formats the signal depends on donor and acceptor labels being close together.

Test [2] has as its target wild-type EGFR enzyme (Homo sapiens, UniProt P00533). In words: Enzymologic experiment of wild-type (WT) EGFR (TR-FRET). It counts as biochemical. The conditions noted are these: ATP 0.1 to 5 uM. How it is done:
2. Enzymologic Experiment of Wild-Type (WT) EGFR
In this experiment, the inhibitory effect of compounds on wild-type EGFR enzyme was tested by a fluorescence resonance energy transfer (TR-FRET) method, and the half maximal inhibitory concentration IC50 of the compounds on enzymatic activity was determined.
1) 1 to 5 μL of wild-type EGFR enzyme solution was added to a 384-well plate, and the final concentration of the enzyme was 0.1 to 1 nM.
as §1, §2, §3
7) 5 μL of a test solution containing the labeled antibody was added, and the mixture was incubated at room temperature for 1 hour.
9) The inhibition rates were calculated from the fluorescence signal values.
as §4

In test [3] the test system is NCI-H1975 cells. Briefly: Inhibition of NCI-H1975 cell proliferation (CellTiter-Glo). It counts as cell-based. The conditions noted are these: Homo sapiens, NCI-H1975, 72 h, NCI-H1975 cell proliferation, 72 hours, CellTiter-Glo; read-out: EGFR IC50 (nM) H1975. As for the experimental part: 3. Experiment on the Inhibition of NCI-H1975 Cell Proliferation
In this experiment, the inhibitory effect of the compounds on NCI-H1975 cell proliferation was tested by a CellTiter-Glo method, and the half maximal inhibitory concentration (IC50) of the compounds on the activity of cell proliferation was determined.
The culture plate was incubated in an incubator for 16 to 24 hours (37° C., 5% CO2).
2) Different concentrations of the test compound in a gradient dilution were added to the cells in the culture plate. The culture plate was incubated in an incubator for 72 hours (37° C., 5% CO2).
3) 50 to 100 μL of CellTiter-Glo reagent was added to each well. Then, the culture plate was shaken for 10 minutes, and left to stand at room temperature for 10 minutes.
4) The chemiluminescence signal values of each plate were determined by a microplate reader.
5) The inhibition rates were calculated according to the chemiluminescence signal values.
6) The IC50 of the compound was obtained by curve fitting according to the inhibition rates at different concentrations.
(ATP-based viability assays read luminescence as a measure of living cells.)

exon 20 T790M mutant-type EGFR enzyme, sequence (P00533 25-1210 T790M): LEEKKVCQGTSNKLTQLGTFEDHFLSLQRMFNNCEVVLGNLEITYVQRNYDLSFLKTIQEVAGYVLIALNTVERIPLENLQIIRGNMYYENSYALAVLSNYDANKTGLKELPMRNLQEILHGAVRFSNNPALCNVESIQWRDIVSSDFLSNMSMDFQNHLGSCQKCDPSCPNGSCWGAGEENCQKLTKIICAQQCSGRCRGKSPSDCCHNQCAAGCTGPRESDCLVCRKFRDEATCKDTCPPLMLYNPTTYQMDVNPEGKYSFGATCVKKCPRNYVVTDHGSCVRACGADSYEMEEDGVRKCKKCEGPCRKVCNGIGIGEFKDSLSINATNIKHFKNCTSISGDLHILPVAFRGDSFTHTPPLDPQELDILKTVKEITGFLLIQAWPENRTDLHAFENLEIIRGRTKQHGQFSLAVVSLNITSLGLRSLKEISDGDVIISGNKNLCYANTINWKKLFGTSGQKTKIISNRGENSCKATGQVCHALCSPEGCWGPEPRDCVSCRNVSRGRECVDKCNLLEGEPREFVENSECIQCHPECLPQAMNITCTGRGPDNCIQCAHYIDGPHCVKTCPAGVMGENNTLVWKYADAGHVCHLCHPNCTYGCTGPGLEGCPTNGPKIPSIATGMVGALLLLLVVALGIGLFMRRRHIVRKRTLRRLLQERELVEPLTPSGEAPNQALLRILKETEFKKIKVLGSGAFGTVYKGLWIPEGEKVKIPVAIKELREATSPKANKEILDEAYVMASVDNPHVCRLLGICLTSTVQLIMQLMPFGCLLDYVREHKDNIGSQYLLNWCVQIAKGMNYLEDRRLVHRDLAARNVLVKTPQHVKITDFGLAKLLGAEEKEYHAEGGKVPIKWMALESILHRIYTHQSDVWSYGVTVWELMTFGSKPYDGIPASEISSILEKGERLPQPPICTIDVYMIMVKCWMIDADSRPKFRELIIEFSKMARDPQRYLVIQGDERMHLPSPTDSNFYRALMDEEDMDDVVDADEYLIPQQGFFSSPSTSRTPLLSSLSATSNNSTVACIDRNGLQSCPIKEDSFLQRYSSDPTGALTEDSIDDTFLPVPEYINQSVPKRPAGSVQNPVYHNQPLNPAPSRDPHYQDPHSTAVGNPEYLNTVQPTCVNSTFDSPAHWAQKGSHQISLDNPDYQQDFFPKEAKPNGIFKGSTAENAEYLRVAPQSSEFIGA
wild-type EGFR enzyme, sequence (P00533 25-1210): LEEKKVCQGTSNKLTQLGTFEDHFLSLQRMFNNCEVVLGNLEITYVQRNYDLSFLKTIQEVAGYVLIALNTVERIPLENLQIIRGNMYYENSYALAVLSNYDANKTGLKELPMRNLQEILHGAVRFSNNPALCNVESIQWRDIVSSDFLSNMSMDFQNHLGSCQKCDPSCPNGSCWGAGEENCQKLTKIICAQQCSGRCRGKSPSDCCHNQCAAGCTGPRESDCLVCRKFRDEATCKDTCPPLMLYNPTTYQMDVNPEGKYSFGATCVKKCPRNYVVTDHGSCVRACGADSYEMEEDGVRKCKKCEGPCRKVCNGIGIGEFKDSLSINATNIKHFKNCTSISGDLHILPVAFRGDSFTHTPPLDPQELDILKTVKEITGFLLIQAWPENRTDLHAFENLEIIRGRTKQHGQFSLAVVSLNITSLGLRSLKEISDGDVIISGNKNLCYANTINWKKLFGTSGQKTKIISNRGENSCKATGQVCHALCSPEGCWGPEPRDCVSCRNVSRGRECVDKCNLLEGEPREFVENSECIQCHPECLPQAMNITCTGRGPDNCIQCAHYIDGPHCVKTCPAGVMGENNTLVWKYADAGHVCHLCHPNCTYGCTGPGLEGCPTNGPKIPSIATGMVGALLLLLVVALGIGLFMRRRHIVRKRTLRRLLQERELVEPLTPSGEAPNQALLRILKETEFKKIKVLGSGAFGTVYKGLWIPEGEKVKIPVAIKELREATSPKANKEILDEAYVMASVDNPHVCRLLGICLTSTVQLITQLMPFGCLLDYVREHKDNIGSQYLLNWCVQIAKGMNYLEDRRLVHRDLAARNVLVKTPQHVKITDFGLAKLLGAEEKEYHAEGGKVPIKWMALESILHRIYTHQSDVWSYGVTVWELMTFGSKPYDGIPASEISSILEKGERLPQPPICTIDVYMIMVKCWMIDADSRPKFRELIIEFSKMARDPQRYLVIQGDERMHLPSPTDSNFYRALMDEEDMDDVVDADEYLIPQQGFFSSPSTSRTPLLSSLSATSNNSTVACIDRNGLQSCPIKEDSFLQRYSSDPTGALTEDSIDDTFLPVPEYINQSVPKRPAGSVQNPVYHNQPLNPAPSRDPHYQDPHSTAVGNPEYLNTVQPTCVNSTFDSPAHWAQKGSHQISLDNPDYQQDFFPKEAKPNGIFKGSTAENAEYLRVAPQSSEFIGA

For the compound `C=CC(=O)Nc1cc(Nc2nccc(-c3cn(C4CC4)c4ccccc34)n2)c(OC)cc1N(C)CCN1CCOCC1` [Example 124, N-(5-((4-(1-cyclopropyl-1H-indol-3-yl)pyrimidin-2-yl)amino)-4-methoxy-2-(methyl(2-morpholinoethyl)amino)phenyl)acrylamide], the IC50 (as a rule, the concentration needed to halve the response being measured) worked out at 4.18 nM in test [1], 190 nM in test [2] and 30.8 nM in test [3]. For the same compound, the Selectivity of wild-type/mutant-type in test [1] turned out to be 45.43.
On to `C=CC(=O)Nc1cc(Nc2nccc(-c3nn(C4CC4)c4ccccc34)n2)c(OC)cc1N(C)CCN(C)C` [Example 119, N-(5-((4-(1-cyclopropyl-1H-indazol-3-yl)pyrimidin-2-yl)amino)-2-((2-(dimethylamino)ethyl)(methyl)amino)-4-methoxyphenyl)acrylamide], for which the IC50 in test [1] is 0.47 nM; in test [2], 4.34 nM; in test [3] it was 2.32 nM. In test [1], the Selectivity of wild-type/mutant-type amounted to 9.23.
`C=CC(=O)Nc1cc(Nc2nccc(-c3cn(C)c4cc(P(C)(C)=O)ccc34)n2)c(OC(F)F)cc1N(C)CCN(C)C` [Example 11, N-(4-(difluoromethoxy)-2-((2-(dimethylamino)ethyl)(methyl)amino)-5-((4-(6-(dimethylphosphoryl)-1-methyl-1H-indol-3-yl)pyrimidin-2-yl)amino)phenyl)acrylamide]: the values for the IC50 in test [1], in test [2] and in test [3] were 2.74 nM, 64.1 nM and 24.6 nM, respectively. In addition, the Selectivity of wild-type/mutant-type in test [1] came out at 23.39.
On to `C=CC(=O)Nc1cc(Nc2ncc(C(F)(F)F)c(-n3nc(OC)c4cc(Cl)ccc43)n2)c(OC)cc1N(C)CCN(C)C` [Example 109, N-(5-((4-(5-chloro-3-methoxy-1H-indazol-1-yl)-5-(trifluoromethyl)pyrimidin-2-yl)amino)-2-((2-(dimethylamino)ethyl)(methyl)amino)-4-methoxyphenyl)acrylamide], for which, in test [1], the IC50 was 5.18 nM and the Selectivity of wild-type/mutant-type came to 74.79. The compound further showed an IC50 in test [2] of 387 nM.
On to `C=CC(=O)Nc1cc(Nc2ncc(Cl)c(-n3nc(OC)c4cc(Cl)ccc43)n2)c(OC)cc1N(C)CCN(C)C` [Example 108, N-(5-((5-chloro-4-(5-chloro-3-methoxy-1H-indazol-1-yl)pyrimidin-2-yl)amino)-2-((2-(dimethylamino)ethyl)(methyl)amino)-4-methoxyphenyl)acrylamide], for which the values for the IC50 in test [1] and in test [2] were 1.33 nM and 119 nM, respectively. In test [1], the Selectivity of wild-type/mutant-type was 89.47.
For `C=CC(=O)Nc1cc(Nc2nccc(-n3c(C)nc4cc(OC)ccc43)n2)c(OC)cc1N(C)CCN(C)C` [Example 71, N-(2-((2-(dimethylamino)ethyl)(methyl)amino)-4-methoxy-5-((4-(5-methoxy-2-methyl-1H-benzo[d]imidazol-1-yl)pyrimidin-2-yl)amino)phenyl)acrylamide], the IC50 in test [1] stood at 28.1 nM.
In the case of `C=CC(=O)Nc1cc(Nc2ncc(Cl)c(-n3nc(CCC)c4cc(C#N)ccc43)n2)c(OC)cc1N(C)CCN(C)C` [Example 116, N-(5-((5-chloro-4-(5-cyano-3-propyl-1H-indazol-1-yl)pyrimidin-2-yl)amino)-2-((2-(dimethylamino)ethyl)(methyl)amino)-4-methoxyphenyl)acrylamide], in test [1], inhibition was half-maximal at 0.8 nM (IC50) and the Selectivity of wild-type/mutant-type worked out at 24.45. Besides, the IC50 in test [2] stood at 19.6 nM.
With `C=CC(=O)Nc1cc(Nc2nccc(-n3nc(OC)c4cc(Cl)ccc43)n2)c(OC)cc1N(C)CCN(C)C` [Example 110, N-(5-((4-(5-chloro-3-methoxy-1H-indazol-1-yl)pyrimidin-2-yl)amino)-2-((2-(dimethylamino)ethyl)(methyl)amino)-4-methoxyphenyl)acrylamide], in test [1], the IC50 was 1.06 nM and the Selectivity of wild-type/mutant-type is reported as 9.10. The same compound came in with an IC50 in test [2] of 9.65 nM.
The like results for `C=CC(=O)Nc1cc(Nc2nccc(-c3cn(C4CC4)c4ccccc34)n2)c(OC(F)F)cc1N(C)CCN(C)C` [Example 12, N-(5-((4-(1-cyclopropyl-1H-indol-3-yl)pyrimidin-2-yl)amino)-4-(difluoromethoxy)-2-((2-(dimethylamino)ethyl)(methyl)amino)phenyl)acrylamide] were, in that order, 0.32 nM, 18.7 and 6.01 nM.
Take `C=CC(=O)Nc1cc(Nc2nccc(-n3ncc4cc(C5CC5)ccc43)n2)c(OC)cc1N(C)CCN(C)C` [Example 47, N-(5-((4-(5-cyclopropyl-1H-indazol-1-yl)pyrimidin-2-yl)amino)-2-((2-(dimethylamino)ethyl)(methyl)amino)-4-methoxyphenyl)acrylamide]: the IC50 in test [1] worked out at 41.4 nM.
Take `C=CC(=O)Nc1cc(Nc2nccc(-n3cnc4cc(OC)ccc43)n2)c(OC)cc1N(C)CCN(C)C` [Example 59, N-(2-((2-(dimethylamino)ethyl)(methyl)amino)-4-methoxy-5-((4-(5-methoxy-1H-benzo[d]imidazol-1-yl)pyrimidin-2-yl)amino)phenyl)acrylamide]: in test [1], half-maximal inhibition (IC50) required 0.35 nM and the Selectivity of wild-type/mutant-type is reported as 12.7. In test [2], this compound registered an IC50 of 4.44 nM.
`C=CC(=O)Nc1cc(Nc2nccc(-n3c(C)nc4ccc(C#N)cc43)n2)c(OC)cc1N(C)CCN(C)C` [Example 74, N-(5-((4-(6-cyano-2-methyl-1H-benzo[d]imidazol-1-yl)pyrimidin-2-yl)amino)-2-((2-(dimethylamino)ethyl)(methyl)amino)-4-methoxyphenyl)acrylamide] displayed an IC50 in test [1] of 26 nM.
In turn, `C=CC(=O)Nc1cc(Nc2nccc(-c3cn(C)c4ccccc34)n2)c(OC(F)F)cc1N(C)CCN1CCOCC1=O` [Example 3, N-(4-(difluoromethoxy)-2-(methyl(2-(3-carbonylmorpholino)ethyl)amino)-5-((4-(1-methyl-1H-indol-3-yl)pyrimidin-2-yl)amino)phenyl)acrylamide] came in with an IC50 in test [1] of 144 nM.
In test [1], `C=CC(=O)Nc1cc(Nc2nccc(-c3cn(C)c4ccccc34)n2)c(OC)cc1N1CC2(COC2)C1` [Example 27, N-(4-methoxy-5-((4-(1-methyl-1H-indol-3-yl)pyrimidin-2-yl)amino)-2-(2-oxa-6-azaspiro[3,3]heptan-6-yl)phenyl)acrylamide] registered an IC50 of 50.2 nM.
With `C=CC(=O)Nc1cc(Nc2nccc(-c3cn(C)c4cc(F)cc(F)c34)n2)c(OC)cc1N(C)CCN(C)C` [Example 29, N-(5-((4-(4,6-difluoro-1-methyl-1H-indol-3-yl)pyrimidin-2-yl)amino)-2-((2-(dimethylamino)ethyl)(methyl)amino)-4-methoxyphenyl)acrylamide], the IC50 in test [1] stood at 16.5 nM.
Regarding `C=CC(=O)Nc1cc(Nc2nccc(-c3cn(C)c4ccccc34)n2)c(OC(F)F)cc1N(C)CCN(C)C` [Example 1, N-(4-(difluoromethoxy)-2-((2-(dimethylamino)ethyl)(methyl)amino)-5-((4-(1-methyl-1H-indol-3-yl)pyrimidin-2-yl)amino)phenyl)acrylamide], in test [1], the IC50 came out at 0.15 nM and the Selectivity of wild-type/mutant-type is 13. In test [2], this compound displayed an IC50 of 2 nM.
For `C=CC(=O)Nc1cc(Nc2nccc(-c3cn(C)c4ccc(C5CC5)cc34)n2)c(OC)cc1N(C)CCN(C)C` [Example 23, N-(5-((4-(5-cyclopropyl-1-methyl-1H-indol-3-yl)pyrimidin-2-yl)amino)-2-((2-(dimethylamino)ethyl)(methyl)amino)-4-methoxyphenyl)acrylamide], the values for the IC50 in test [1] and in test [3] were 2.75 nM and 46.8 nM, respectively.
Take `C=CC(=O)Nc1cc(Nc2nccc(-n3ncc4cc(OC)ccc43)n2)c(OC)cc1N(C)CCN(C)C` [Example 43, N-(2-((2-(dimethylamino)ethyl)(methyl)amino)-4-methoxy-5-((4-(5-methoxy-1H-indazol-1-yl)pyrimidin-2-yl)amino)phenyl)acrylamide]: the IC50 in test [1] was found to be 0.38 nM; in test [2] it was 3.77 nM. In addition, the Selectivity of wild-type/mutant-type in test [1] amounted to 9.8.
For `C=CC(=O)Nc1cc(Nc2ncc(C(F)(F)F)c(-n3cnc4ccc(OC)cc43)n2)c(OC)cc1N(C)CCN(C)C` [Example 68, N-(2-((2-(dimethylamino)ethyl)(methyl)amino)-4-methoxy-5-((4-(6-methoxy-1H-benzo[d]imidazol-1-yl)-5-(trifluoromethyl)pyrimidin-2-yl)amino)phenyl)acrylamide], the IC50 was found to be 0.99 nM in test [1] and 191 nM in test [2]. Besides, in test [1], the Selectivity of wild-type/mutant-type is on record as 193.03.
